# Measured values published in patent US8188139B2, “Heterocyclic-substituted phenyl methanones” (Hoffman-La Roche Inc., priority 2005, dated 2012).
# Target: T1, mGlyT-1b (Mus musculus, UniProt P28571)
# T1 construct: host or cells: Flp-in-CHO
# T1 sequence (P28571 1-651 isoform P28571-2): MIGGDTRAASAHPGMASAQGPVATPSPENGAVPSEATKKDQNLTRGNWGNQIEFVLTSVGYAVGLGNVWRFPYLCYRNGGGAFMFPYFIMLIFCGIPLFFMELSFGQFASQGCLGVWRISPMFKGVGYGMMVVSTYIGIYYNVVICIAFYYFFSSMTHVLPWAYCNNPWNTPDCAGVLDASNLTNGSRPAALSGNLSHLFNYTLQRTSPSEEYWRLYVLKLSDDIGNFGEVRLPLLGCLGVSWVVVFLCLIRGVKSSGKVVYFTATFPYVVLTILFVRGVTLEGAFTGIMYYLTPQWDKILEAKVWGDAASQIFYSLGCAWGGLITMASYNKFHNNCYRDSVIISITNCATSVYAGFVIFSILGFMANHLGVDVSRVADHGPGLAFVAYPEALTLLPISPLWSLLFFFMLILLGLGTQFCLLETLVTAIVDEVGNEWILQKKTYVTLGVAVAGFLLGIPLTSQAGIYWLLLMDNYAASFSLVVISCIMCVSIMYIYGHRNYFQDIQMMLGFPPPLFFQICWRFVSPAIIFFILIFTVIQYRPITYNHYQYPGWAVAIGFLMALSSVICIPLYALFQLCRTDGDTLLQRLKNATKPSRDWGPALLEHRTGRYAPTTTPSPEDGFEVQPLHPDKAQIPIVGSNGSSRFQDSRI
# Experiment: Glycine uptake inhibition assay (mGlyT-1b)
# Type: cell-based
# Details: inhibition of [3H]-glycine uptake in Flp-in-CHO cells transfected with mGlyT-1b cDNA; 20 min preincubation at 22° C.; read-out: IC50 (μM) at GlyT-1
# Procedure, shortened: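 Flp-in CHO cells stably expressing mouse GlyT-1b were preincubated with inhibitor (concentration range) for 20 min at 22° C. in pH 7.4 uptake buffer; nonspecific uptake defined with 10 mM glycine. [3H]-glycine 60 nM plus 25 μM unlabelled glycine was then added; cell-associated radioactivity counted by scintillation and IC50 derived.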
row,SMILES,IC50 [µM]
1,"C[C@H](Oc1ccc(S(C)(=O)=O)cc1C(=O)N1Cc2ccc(N3[C@@H]4CC[C@H]3COC4)cc2C1)C(F)(F)F [Example 295, [5-Methanesulfonyl-2-((S)-2,2,2-trifluoro-1-methyl-ethoxy)-phenyl]-[(1R,5S)-5-(3-oxa-8-aza-bicyclo[3.2.1]oct-8-yl)-1,3-dihydro-isoindol-2-yl]-methanone]",0.04
2,"C[C@H](Oc1ccc(S(C)(=O)=O)cc1C(=O)N1Cc2cc(Cl)c(C3CCOCC3)cc2C1)C(F)(F)F [Example 305, [5-Chloro-6-(tetra-hydro-pyran-4-yl)-1,3-dihydro-isoindol-2-yl]-[5-methane-sulfonyl-2-((S)-2,2,2-trifluoro-1-methyl-ethoxy)-phenyl]-methanone]",0.037
3,"CCc1cc2c(cc1C1CCOCC1)CN(C(=O)c1cc(S(C)(=O)=O)ccc1O[C@@H](C)C(F)(F)F)C2 [Example 306, [5-Ethyl-6-(tetrahydro-pyran-4-yl)-1,3-dihydro-isoindol-2-yl]-[5-methanesulfonyl-2-((S)-2,2,2-trifluoro-1-methyl-ethoxy)-phenyl]-methanone]",0.087
4,"C[C@H](Oc1ccc(S(C)(=O)=O)cc1C(=O)N1Cc2cnc(-c3ccc(F)cc3)cc2C1)C(F)(F)F [Example 321, [6-(4-Fluoro-phenyl)-1,3-dihydro-pyrrolo[3,4-c]pyridin-2-yl]-[5-methanesulfonyl-2-((S)-2,2,2-trifluoro-1-methyl-ethoxy)-phenyl]-methanone]",0.034
5,"C[C@H](Oc1ccc(S(C)(=O)=O)cc1C(=O)N1Cc2ccc(-c3ccccc3Cl)cc2C1)C(F)(F)F [Example 324, [5-(2-Chloro-phenyl)-1,3-dihydro-isoindol-2-yl]-[5-methanesulfonyl-2-(2,2,2-trifluoro-1-methyl-ethoxy)-phenyl]-methanone]",0.045
6,"Cc1ccsc1-c1ccc2c(c1)CN(C(=O)c1cc(S(C)(=O)=O)ccc1O[C@@H](C)C(F)(F)F)C2 [Example 332, [5-Methanesulfonyl-2-(2,2,2-trifluoro-1-methyl-ethoxy)-phenyl]-[5-(3-methyl-thiophen-2-yl)-1,3-dihydro-isoindol-2-yl]-methanone]",0.041
7,"C[C@H](Oc1ccc(S(C)(=O)=O)cc1C(=O)N1Cc2ccc(-c3ccc(F)cc3)cc2C1)C(F)(F)F [Example 333, [5-(4-Fluoro-phenyl)-1,3-dihydro-isoindol-2-yl]-[5-methanesulfonyl-2-(2,2,2-trifluoro-1-methyl-ethoxy)-phenyl]-methanone]",0.047
8,"C[C@H](Oc1ccc(S(C)(=O)=O)cc1C(=O)N1Cc2ccc(-c3ccccc3F)cc2C1)C(F)(F)F [Example 335, [5-(2-Fluoro-phenyl)-1,3-dihydro-isoindol-2-yl]-[5-methanesulfonyl-2-(2,2,2-trifluoro-1-methyl-ethoxy)-phenyl]-methanone]",0.031
9,Cc1cscc1-c1ccc2c(c1)CN(C(=O)c1cc(S(C)(=O)=O)ccc1O[C@@H](C)C(F)(F)F)C2 [Example 345],0.034
10,C[C@H](Oc1ccc(S(C)(=O)=O)cc1C(=O)N1Cc2ccc(-n3cccn3)cc2C1)C(F)(F)F [Example 347],0.043
11,"CS(=O)(=O)c1ccc(OCC(F)(F)C(F)(F)F)c(C(=O)N2Cc3cc(Cl)c(N4C5CCC4COC5)cc3C2)c1 [Example 363, [5-Chloro-6-(3-oxa-8-aza-bicyclo[3.2.1]oct-8-yl)-1,3-dihydro-isoindol-2-yl]-[5-methanesulfonyl-2-(2,2,3,3,3-pentafluoro-propoxy)-phenyl]-methanone]",0.004
12,"C[C@H](Oc1ccc(S(C)(=O)=O)cc1C(=O)N1Cc2cc(Cl)c(N3C[C@@H]4C[C@H]3CO4)cc2C1)C(F)(F)F [Example 365, ((1S,4S)-5-Chloro-6-2-oxa-5-aza-bicyclo[2.2.1]hept-5-yl-1,3-dihydro-isoindol-2-yl)-[5-methanesulfonyl-2-((S)-2,2,2-trifluoro-1-methyl-ethoxy)-phenyl]-methanone]",0.033

# Next, values leading:
row,IC50 [µM],SMILES
1,0.017,Cc1cc2c(cc1C1CCOCC1)CN(C(=O)c1cc(S(C)(=O)=O)ccc1O[C@@H](C)C(F)(F)F)C2 [Example 300]
2,0.008,"C[C@H](Oc1ccc(S(C)(=O)=O)cc1C(=O)N1Cc2ccc(C3CCOC3)cc2C1)C(F)(F)F (stereo partly drawn) [Example 304, [5-Methanesulfonyl-2-((S)-2,2,2-trifluoro-1-methyl-ethoxy)-phenyl]-[5-(tetra-hydro-furan-3-yl)-1,3-dihydro-isoindol-2-yl]-methanone]"
3,0.017,"C[C@H](Oc1ccc(S(C)(=O)=O)cc1C(=O)N1Cc2ccc(-c3ccncc3)cc2C1)C(F)(F)F [Example 315, [5-Methanesulfonyl-2-((S)-2,2,2-trifluoro-1-methyl-ethoxy)-phenyl]-(5-pyridin-4-yl-1,3-dihydro-isoindol-2-yl)-methanone]"
4,0.024,C[C@H](Oc1ccc(S(C)(=O)=O)cc1C(=O)N1Cc2ccc(-c3cccnc3)cc2C1)C(F)(F)F [Example 317]
5,0.012,"C[C@H](Oc1ccc(S(C)(=O)=O)cc1C(=O)N1Cc2cc(-c3ccc(F)cc3)cnc2C1)C(F)(F)F [Example 322, [3-(4-Fluoro-phenyl)-5,7-dihydro-pyrrolo[3,4-b]pyridin-6-yl]-[5-methanesulfonyl-2-((S)-2,2,2-trifluoro-1-methyl-ethoxy)-phenyl]-methanone]"
6,0.013,"C[C@H](Oc1ccc(S(C)(=O)=O)cc1C(=O)N1Cc2ccc(-c3ccccc3)cc2C1)C(F)(F)F [Example 323, [5-Methanesulfonyl-2-((S)-2,2,2-trifluoro-1-methyl-ethoxy)-phenyl]-(5-phenyl-1,3-dihydro-isoindol-2-yl)-methanone]"
7,0.02,"C[C@H](Oc1ccc(S(C)(=O)=O)cc1C(=O)N1Cc2ccc(-c3ccsc3)cc2C1)C(F)(F)F [Example 330, [5-Methanesulfonyl-2-(2,2,2-trifluoro-1-methyl-ethoxy)-phenyl]-(5-thiophen-3-yl-1,3-dihydro-isoindol-2-yl)-methanone]"
8,0.022,"Cc1csc(-c2ccc3c(c2)CN(C(=O)c2cc(S(C)(=O)=O)ccc2O[C@@H](C)C(F)(F)F)C3)c1 [Example 331, [5-Methanesulfonyl-2-(2,2,2-trifluoro-1-methyl-ethoxy)-phenyl]-[5-(4-methyl-thiophen-2-yl)-1,3-dihydro-isoindol-2-yl]-methanone]"
9,0.02,"C[C@H](Oc1ccc(S(C)(=O)=O)cc1C(=O)N1Cc2ccc(-c3cccc(F)c3)cc2C1)C(F)(F)F [Example 334, [5-(3-Fluoro-phenyl)-1,3-dihydro-isoindol-2-yl]-[5-methanesulfonyl-2-(2,2,2-trifluoro-1-methyl-ethoxy)-phenyl]-methanone]"
10,0.022,C[C@H](Oc1ccc(S(C)(=O)=O)cc1C(=O)N1Cc2ccc(-c3cc(F)cc(F)c3)cc2C1)C(F)(F)F [Example 337]
11,0.025,"COc1cccc(-c2ccc3c(c2)CN(C(=O)c2cc(S(C)(=O)=O)ccc2O[C@@H](C)C(F)(F)F)C3)c1 [Example 340, [5-Methanesulfonyl-2-(2,2,2-trifluoro-1-methyl-ethoxy)-phenyl]-[5-(3-methoxy-phenyl)-1,3-dihydro-isoindol-2-yl]-methanone]"
12,0.02,C[C@H](Oc1ccc(S(C)(=O)=O)cc1C(=O)N1Cc2ccc(-c3cccs3)cc2C1)C(F)(F)F [Example 344]
13,0.013,"C[C@H](Oc1ccc(S(C)(=O)=O)cc1C(=O)N1Cc2cnc(N3CCOCC3)cc2C1)C(F)(F)F [Example 356, [5-Methanesulfonyl-2-((S)-2,2,2-trifluoro-1-methyl-ethoxy)-phenyl]-(6-morpholin-4-yl-1,3-dihydro-pyrrolo[3,4-c]pyridin-2-yl)-methanone]"
14,0.03,"C[C@H](Oc1ccc(S(C)(=O)=O)cc1C(=O)N1Cc2ccc(OCC(F)(F)F)cc2C1)C(F)(F)F [Example 357, [5-Methanesulfonyl-2-((S)-2,2,2-trifluoro-1-methyl-ethoxy)-phenyl]-[5-(2,2,2-trifluoro-ethoxy)-1,3-dihydro-isoindol-2-yl]-methanone]"
15,0.002,"C[C@H](Oc1ccc(S(C)(=O)=O)cc1C(=O)N1Cc2cc(F)c(C3CCOCC3)cc2C1)C(F)(F)F [Example 366, [5-Fluoro-6-(tetrahydro-pyran-4-yl)-1,3-dihydro-isoindol-2-yl]-[5-methanesulfonyl-2-((S)-2,2,2-trifluoro-1-methyl-ethoxy)-phenyl]-methanone]"
16,0.0015,"C[C@H](Oc1ccc(S(C)(=O)=O)cc1C(=O)N1Cc2ccc(OC3CCOCC3)cc2C1)C(F)(F)F [Example 367, [5-Methanesulfonyl-2-((S)-2,2,2-trifluoro-1-methyl-ethoxy)-phenyl]-[5-(tetrahydro-pyran-4-yloxy)-1,3-dihydro-isoindol-2-yl]-methanone]"
17,0.005,"C[C@H](Oc1ccc(S(C)(=O)=O)cc1C(=O)N1Cc2ccc(C3(F)COC3)cc2C1)C(F)(F)F [Example 368, [5-(3-Fluoro-oxetan-3-yl)-1,3-dihydro-isoindol-2-yl]-[5-methanesulfonyl-2-((S)-2,2,2-trifluoro-1-methyl-ethoxy)-phenyl]-methanone]"
